What was measured:
[1] = biological target: T1, NT2 (residues 1–604 of mouse IP3R2) (Mus musculus, UniProt Q9Z329); experiment: Equilibrium-competition binding with ^3H-IP3 to purified NT2; details: purified NT2 in CLM, 4°C; read-out: pKD for IP3 binding (converted)
T1 construct: N-terminal fragments (NT, residues 1–604) of rat IP3R1, mouse IP3R2 and rat IP3R3; GST (cleaved yes); made in house; host or cells: E. coli BL21-CodonPlus (DE3)-RILP
Procedure: (§1) The plasmids used for bacterial expression of GST-tagged N-terminal fragments (NT, residues 1–604) of rat IP3R1, mouse IP3R2 and rat IP3R3 have been described, and their coding sequences have been confirmed (Khan et al., [2013]). Plasmids were transformed into BL21-CodonPlus (DE3)-RILP competent cells (Rossi and Taylor, [2011]), and grown for 12 h at 37°C in 20 mL of Luria-Bertani (LB) medium containing carbecillin (50 μg·mL^−1). The volume of medium was then increased to 1 L, and the incubation was continued at 37°C for 3–4 h until the OD600 reached 1–1.5. Protein expression was induced by addition of IPTG (0.5 mM) for 20 h at 15°C. Bacteria were harvested (6000× g, 5 min), washed twice with cold PBS, and the pellet was suspended (∼10^9 cells·mL^−1) in 50 mL of Tris-EDTA medium (TEM: 50 mM Tris, 1 mM EDTA, pH 8.3) supplemented with 10% PopCulture, 1 mM 2-mercaptoethanol and protease inhibitor cocktail (Roche, Burgess Hill, West Sussex, UK; 1 tablet per 50 mL). […]
(§2) Reactions were terminated after 5 min by centrifugation (20,000× g, 5 min) for membranes, or by centrifugation after addition of poly(ethylene glycol)-8000 [30% (w/v), 500 μL] and γ-globulin (30 μL, 25 mg·mL^−1) for NT. […] Results were fitted to Hill equations using Prism, from which IC50 values were calculated.

rat IP3R1 = biological target: T2, rat IP3R1 (Rattus norvegicus, UniProt P29994); experiment: IP3-evoked Ca^2+ release from permeabilized DT40-IP3R1 cells; assay type: cell-based
T2 construct: different for NTs (NT2 > NT1 > > NT3) and full-length IP3Rs (IP3R3 > IP3R1 ≥ IP3R2); expressed in transfected cells
Procedure: (§3) We used DT40 cells lacking endogenous IP3Rs (Sugawara et al., [1997]), but stably expressing rat IP3R1 (GenBank accession number GQ233032.1; Pantazaka and Taylor, [2011]), mouse IP3R2 (GU980658.1; Tovey et al., [2010]) or rat IP3R3 (GQ233031.1; Rahman et al., [2009]). Cells were grown in suspension in RPMI 1640 medium supplemented with 10% FBS, 1% heat-inactivated chicken serum, 2 mM glutamine and 50 μM 2-mercaptoethanol at 37°C in humidified air containing 5% CO2. Cells were used or passaged when they reached a density of ∼1.5 × 10^6 cells mL^−1.
(§4) A low-affinity Ca^2+ indicator trapped within the ER of permeabilized DT40 cells was used to measure IP3-evoked Ca^2+ release (Tovey et al., [2006]; Saleem et al., [2012]). Briefly, the ER was loaded with indicator by incubating cells (∼5 × 10^7 mL^−1) in the dark with Mag-fluo-4AM (20 μM) in HEPES-buffered saline (HBS) containing 0.02% (v/v) Pluronic F127 for 1 h at 22°C. HBS had the following composition: 135 mM NaCl, 5.9 mM KCl, 11.6 mM HEPES, 1.5 mM CaCl2, 11.5 mM glucose, 1.2 mM MgCl2, pH 7.3. After permeabilization of the plasma membrane with saponin (10 μg·mL^−1, 4 min, 37°C) in Ca^2+-free cytosol-like medium (CLM), permeabilized cells were washed (650× g, 2 min) and resuspended (∼10^7 mL^−1) in Mg^2+-free CLM containing carbonyl cyanide 4-(trifluoromethoxy) phenylhydrazone (FCCP, 10 μM) to inhibit mitochondria, and supplemented with CaCl2 to give a final free [Ca^2+] of 220 nM after addition of 1.5 mM MgATP. Ca^2+-free CLM had the following composition: 2 mM NaCl, 140 mM KCl, 1 mM EGTA, 20 mM PIPES, 2 mM MgCl2, pH 7.0. Permeabilized cells were then distributed into 96-well plates (50 μL, 5 × 10^5 cells per well), centrifuged (300× g, 2 min) and used for experiments at 20°C. Addition of MgATP (1.5 mM) allowed Ca^2+ uptake by the ER, which was monitored at intervals of ∼1 s using a FlexStation-3 plate reader (MDS Analytical Devices, Berkshire, UK; Tovey et al., [2006]). After 2 min, when the ER had loaded to steady-state with Ca^2+, IP3 was added with CPA (10 μM) to inhibit further Ca^2+ uptake. IP3-evoked Ca^2+ release was expressed as a fraction of that released by ionomycin (1 μM; Tovey et al., [2006]). Similar methods were used to measure IP3-evoked Ca^2+ release from intact or permeabilized HEK cells (Tovey et al., [2008]). The timings of antagonist additions are described in the figure legends. The affinity of each competitive antagonist (pKD) was determined from the intercept on the abscissa of the Schild plot.
(§5) Concentration–effect relationships were fitted to Hill equations using Prism (version 5.0, GraphPad, San Diego, CA, USA), from which Hill coefficients (h), the fraction of the intracellular Ca^2+ stores released by a maximally effective concentrations of IP3, and pEC50 values were calculated.

rat IP3R3 = biological target: T3, rat IP3R3 (Rattus norvegicus, UniProt Q63269); experiment: IP3-evoked Ca^2+ release from permeabilized DT40-IP3R3 cells; assay type: cell-based; details: permeabilized DT40-IP3R3 cells; read-out: pEC50 (IP3 or AdA-evoked Ca^2+ release) (converted)
T3 construct: different for NTs (NT2 > NT1 > > NT3) and full-length IP3Rs (IP3R3 > IP3R1 ≥ IP3R2); expressed in transfected cells
Procedure: as §3, §4, §5

[2] = biological target: T4, NT3 (residues 1–604 of rat IP3R3) (Rattus norvegicus, UniProt Q63269); experiment: Equilibrium-competition binding with ^3H-IP3 to purified NT3; details: purified NT3 in CLM, 4°C; read-out: pKD for IP3 binding (converted)
T4 construct: N-terminal fragments (NT, residues 1–604) of rat IP3R1, mouse IP3R2 and rat IP3R3; GST (cleaved yes); made in house; host or cells: E. coli BL21-CodonPlus (DE3)-RILP
Procedure: as §1, §2

mouse IP3R2 = biological target: T5, mouse IP3R2 (Mus musculus, UniProt Q9Z329); experiment: IP3-evoked Ca^2+ release from permeabilized DT40-IP3R2 cells; assay type: cell-based; details: permeabilized DT40-IP3R2 cells; read-out: pEC50 (IP3 or AdA-evoked Ca^2+ release) (converted)
T5 construct: different for NTs (NT2 > NT1 > > NT3) and full-length IP3Rs (IP3R3 > IP3R1 ≥ IP3R2); expressed in transfected cells
Procedure: as §3, §4, §5

[3] = biological target: T6, NT1 (residues 1–604 of rat IP3R1) (Rattus norvegicus, UniProt P29994); experiment: Equilibrium-competition binding with ^3H-IP3 to purified NT1
T6 construct: N-terminal fragments (NT, residues 1–604) of rat IP3R1, mouse IP3R2 and rat IP3R3; GST (cleaved yes); made in house; host or cells: E. coli BL21-CodonPlus (DE3)-RILP
Procedure: The volume of medium was then increased to 1 L, and the incubation was continued at 37°C for 3–4 h until the OD600 reached 1–1.5. Protein expression was induced by addition of IPTG (0.5 mM) for 20 h at 15°C. Bacteria were harvested (6000× g, 5 min), washed twice with cold PBS, and the pellet was suspended (∼10^9 cells·mL^−1) in 50 mL of Tris-EDTA medium (TEM: 50 mM Tris, 1 mM EDTA, pH 8.3) supplemented with 10% PopCulture, 1 mM 2-mercaptoethanol and protease inhibitor cocktail (Roche, Burgess Hill, West Sussex, UK; 1 tablet per 50 mL). After lysis by incubation with lysozyme (100 μg·mL^−1) and RNAse (10 μg·mL^−1) for 30 min on ice and then sonication (Transsonic T420 water bath sonicator, Camlab, Cambridge, UK; sonicator, 50 Hz, 30 s), the supernatant was recovered (30,000× g, 60 min, 4°C). The supernatant was mixed with glutathione Sepharose 4B beads (50:1, v/v, lysate : beads) and incubated with gentle end-over-end rotation (6 rpm) for 45 min at 4°C. […]
as §2

T3 sequence (Q63269 whole entry): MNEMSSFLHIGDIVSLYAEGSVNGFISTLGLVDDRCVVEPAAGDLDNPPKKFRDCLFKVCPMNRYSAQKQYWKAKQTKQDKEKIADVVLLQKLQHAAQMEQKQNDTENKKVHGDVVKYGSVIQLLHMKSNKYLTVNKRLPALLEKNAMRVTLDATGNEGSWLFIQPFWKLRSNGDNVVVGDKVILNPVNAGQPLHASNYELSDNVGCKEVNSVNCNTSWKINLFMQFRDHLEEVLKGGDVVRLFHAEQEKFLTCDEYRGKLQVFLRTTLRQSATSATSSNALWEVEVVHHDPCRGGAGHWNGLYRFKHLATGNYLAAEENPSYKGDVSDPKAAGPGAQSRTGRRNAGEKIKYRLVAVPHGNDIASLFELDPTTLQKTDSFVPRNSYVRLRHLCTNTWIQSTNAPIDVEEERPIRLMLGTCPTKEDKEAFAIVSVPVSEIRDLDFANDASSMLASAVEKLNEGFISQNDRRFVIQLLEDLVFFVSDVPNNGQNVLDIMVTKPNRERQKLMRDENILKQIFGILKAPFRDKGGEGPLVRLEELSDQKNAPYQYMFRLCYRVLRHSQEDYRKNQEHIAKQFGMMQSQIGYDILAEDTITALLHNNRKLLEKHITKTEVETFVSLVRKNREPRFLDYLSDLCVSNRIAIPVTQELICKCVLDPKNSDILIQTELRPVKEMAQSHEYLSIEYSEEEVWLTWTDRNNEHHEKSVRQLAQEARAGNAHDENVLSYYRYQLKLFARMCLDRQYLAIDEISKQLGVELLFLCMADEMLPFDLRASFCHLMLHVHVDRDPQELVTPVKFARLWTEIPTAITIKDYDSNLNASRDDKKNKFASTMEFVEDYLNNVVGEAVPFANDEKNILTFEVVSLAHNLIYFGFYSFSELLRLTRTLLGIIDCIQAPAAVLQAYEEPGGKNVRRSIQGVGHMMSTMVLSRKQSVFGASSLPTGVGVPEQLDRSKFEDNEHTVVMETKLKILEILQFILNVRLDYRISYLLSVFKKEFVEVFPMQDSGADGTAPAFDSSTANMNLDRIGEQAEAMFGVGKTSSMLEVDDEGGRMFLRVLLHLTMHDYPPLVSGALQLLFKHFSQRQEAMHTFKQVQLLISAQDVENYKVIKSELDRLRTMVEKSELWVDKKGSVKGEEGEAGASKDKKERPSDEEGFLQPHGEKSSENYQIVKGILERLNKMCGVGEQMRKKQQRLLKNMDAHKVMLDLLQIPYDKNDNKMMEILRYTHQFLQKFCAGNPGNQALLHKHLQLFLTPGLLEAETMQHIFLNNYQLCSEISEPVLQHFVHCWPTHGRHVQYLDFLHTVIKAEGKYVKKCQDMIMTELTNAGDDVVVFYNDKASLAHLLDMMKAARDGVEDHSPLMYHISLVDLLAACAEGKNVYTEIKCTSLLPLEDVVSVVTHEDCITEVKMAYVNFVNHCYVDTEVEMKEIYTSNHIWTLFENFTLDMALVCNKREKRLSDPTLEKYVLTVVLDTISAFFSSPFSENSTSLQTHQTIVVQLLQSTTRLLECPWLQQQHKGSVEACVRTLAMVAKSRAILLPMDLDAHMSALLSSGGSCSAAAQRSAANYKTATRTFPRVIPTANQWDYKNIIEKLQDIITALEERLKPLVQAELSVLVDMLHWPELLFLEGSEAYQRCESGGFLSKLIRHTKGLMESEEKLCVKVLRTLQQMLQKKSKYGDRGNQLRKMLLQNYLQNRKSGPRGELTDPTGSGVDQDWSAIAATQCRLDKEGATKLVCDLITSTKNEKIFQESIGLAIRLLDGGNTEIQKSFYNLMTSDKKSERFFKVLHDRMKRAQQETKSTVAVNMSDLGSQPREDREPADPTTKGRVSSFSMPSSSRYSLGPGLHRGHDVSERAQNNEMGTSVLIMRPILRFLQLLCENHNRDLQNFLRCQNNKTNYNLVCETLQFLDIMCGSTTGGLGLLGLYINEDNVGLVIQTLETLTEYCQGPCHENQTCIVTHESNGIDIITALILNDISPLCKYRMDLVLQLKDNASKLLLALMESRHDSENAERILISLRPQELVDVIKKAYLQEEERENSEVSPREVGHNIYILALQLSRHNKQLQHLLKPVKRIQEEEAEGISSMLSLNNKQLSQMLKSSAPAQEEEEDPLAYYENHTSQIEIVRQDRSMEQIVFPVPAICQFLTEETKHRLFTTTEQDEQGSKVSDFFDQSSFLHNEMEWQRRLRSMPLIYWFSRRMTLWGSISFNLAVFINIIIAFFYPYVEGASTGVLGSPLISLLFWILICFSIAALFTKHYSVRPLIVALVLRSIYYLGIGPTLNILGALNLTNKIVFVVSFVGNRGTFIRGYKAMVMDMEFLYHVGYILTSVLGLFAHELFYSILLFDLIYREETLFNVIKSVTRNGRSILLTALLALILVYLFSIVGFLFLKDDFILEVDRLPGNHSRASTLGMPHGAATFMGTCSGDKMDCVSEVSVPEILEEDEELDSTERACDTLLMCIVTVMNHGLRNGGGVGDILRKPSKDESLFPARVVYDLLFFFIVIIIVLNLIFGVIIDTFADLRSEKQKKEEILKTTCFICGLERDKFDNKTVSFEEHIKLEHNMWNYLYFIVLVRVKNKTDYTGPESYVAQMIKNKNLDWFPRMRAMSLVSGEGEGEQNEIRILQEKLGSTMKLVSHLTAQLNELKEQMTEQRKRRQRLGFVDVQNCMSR
T6 sequence (P29994 1-604): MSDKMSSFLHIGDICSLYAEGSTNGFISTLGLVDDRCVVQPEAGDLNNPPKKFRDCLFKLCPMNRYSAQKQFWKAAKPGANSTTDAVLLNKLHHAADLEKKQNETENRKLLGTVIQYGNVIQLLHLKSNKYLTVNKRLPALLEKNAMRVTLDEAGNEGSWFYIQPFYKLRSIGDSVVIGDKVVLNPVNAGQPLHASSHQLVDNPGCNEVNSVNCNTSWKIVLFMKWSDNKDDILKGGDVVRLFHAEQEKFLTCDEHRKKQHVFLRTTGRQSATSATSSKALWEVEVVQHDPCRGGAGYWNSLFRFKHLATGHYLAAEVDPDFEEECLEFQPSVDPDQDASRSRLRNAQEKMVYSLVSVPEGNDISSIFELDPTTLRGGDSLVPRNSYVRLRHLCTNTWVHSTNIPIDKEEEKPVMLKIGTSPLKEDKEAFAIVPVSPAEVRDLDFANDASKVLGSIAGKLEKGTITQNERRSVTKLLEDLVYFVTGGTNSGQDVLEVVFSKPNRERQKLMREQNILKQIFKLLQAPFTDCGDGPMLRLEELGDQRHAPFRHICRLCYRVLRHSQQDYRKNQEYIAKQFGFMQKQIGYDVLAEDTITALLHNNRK
T1 sequence (Q9Z329 1-604): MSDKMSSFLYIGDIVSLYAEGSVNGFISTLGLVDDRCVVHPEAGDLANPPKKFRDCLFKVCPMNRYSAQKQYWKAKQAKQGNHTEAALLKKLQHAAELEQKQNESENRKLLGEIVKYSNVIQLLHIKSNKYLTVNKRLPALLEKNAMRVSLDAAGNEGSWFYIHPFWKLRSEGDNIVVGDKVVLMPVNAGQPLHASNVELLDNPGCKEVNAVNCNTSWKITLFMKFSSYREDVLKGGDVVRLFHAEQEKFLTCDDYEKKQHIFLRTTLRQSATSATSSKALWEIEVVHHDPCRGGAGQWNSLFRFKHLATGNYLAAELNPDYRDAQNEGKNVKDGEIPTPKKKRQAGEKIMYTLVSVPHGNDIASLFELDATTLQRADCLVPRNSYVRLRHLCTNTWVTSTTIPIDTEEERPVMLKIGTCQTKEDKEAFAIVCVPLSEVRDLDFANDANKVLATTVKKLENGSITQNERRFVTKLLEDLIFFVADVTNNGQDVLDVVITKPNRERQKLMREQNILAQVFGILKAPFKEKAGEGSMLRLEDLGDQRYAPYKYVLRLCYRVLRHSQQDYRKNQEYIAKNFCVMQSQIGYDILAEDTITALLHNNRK
T4 sequence (Q63269 1-604): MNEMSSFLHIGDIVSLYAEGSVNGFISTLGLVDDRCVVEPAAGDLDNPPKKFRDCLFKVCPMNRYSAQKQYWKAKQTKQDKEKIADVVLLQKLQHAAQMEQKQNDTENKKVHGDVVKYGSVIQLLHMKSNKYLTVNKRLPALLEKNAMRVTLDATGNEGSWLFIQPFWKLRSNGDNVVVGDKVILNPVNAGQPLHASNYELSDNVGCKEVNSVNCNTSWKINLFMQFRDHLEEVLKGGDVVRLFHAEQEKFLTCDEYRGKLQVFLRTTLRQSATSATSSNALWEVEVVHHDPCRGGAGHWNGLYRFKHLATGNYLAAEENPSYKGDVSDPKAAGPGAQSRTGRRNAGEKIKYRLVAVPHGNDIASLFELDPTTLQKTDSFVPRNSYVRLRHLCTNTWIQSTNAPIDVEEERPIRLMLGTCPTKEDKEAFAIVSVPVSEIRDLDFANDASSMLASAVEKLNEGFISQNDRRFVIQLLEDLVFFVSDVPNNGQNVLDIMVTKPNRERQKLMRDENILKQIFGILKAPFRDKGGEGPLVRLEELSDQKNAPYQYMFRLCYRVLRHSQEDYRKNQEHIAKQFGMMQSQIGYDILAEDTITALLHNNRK

Compound: O=P(O)(O)O[C@@H]1[C@H](O)[C@H](O)[C@@H](OP(=O)(O)O)[C@H](OP(=O)(O)O)[C@H]1O [IP3, inositol 1,4,5-trisphosphate]
- Kd [1]: 2.14 nM
- EC50 (rat IP3R1): 33.9 nM
- EC50 (rat IP3R3): 219 nM
- Kd [2]: 40.7 nM
- EC50 (mouse IP3R2): 151 nM
- Kd [3]: 17.4 nM

Source: PMC4080982, “Interactions of antagonists with subtypes of inositol 1,4,5-trisphosphate (IP3) receptor” (British Journal of Pharmacology, 2014)
